Test results taken from ChEMBL document CHEMBL6096698, “Discovery of a Selective and Orally Bioavailable RET Degrader with Effectiveness in Various Mutations” (J Med Chem, 2025).

What was measured:
[1] = test system: BaF3; experiment: Antiproliferative activity against mouse BaF3 cells stably expressing KIF5B-RET G810C mutant incubated for 72 hrs by CCK8 assay; format: functional, cell-based; settings: BaF3, 72 h
[2] = test system: BaF3; experiment: Antiproliferative activity against mouse BaF3 cells stably expressing KIF5B-RET G810R mutant incubated for 72 hrs by CCK8 assay; format: functional, cell-based; settings: BaF3, 72 h
[3] = test system: BaF3; experiment: Antiproliferative activity against mouse BaF3 cells stably expressing KIF5B-RET V804M mutant incubated for 72 hrs by CCK8 assay; format: functional, cell-based; settings: BaF3, 72 h
[4] = test system: BaF3; experiment: Antiproliferative activity against mouse BaF3 cells stably expressing KIF5B-RET incubated for 72 hrs by CCK8 assay; format: functional, cell-based; settings: BaF3, 72 h
[5] = test system: BaF3; experiment: PROTAC activity at VHL/KIF5B-RET (unknown origin) expressed in mouse BaF3 cells assessed as induction of RET degradation at 10 nM incubated for 24 hrs by immunoblot analysis relative to control; format: cell-based
[6] = test system: BaF3; experiment: Antiproliferative activity against mouse BaF3 cells stably expressing KIF5B-RET G810S mutant incubated for 72 hrs by CCK8 assay; format: functional, cell-based; settings: BaF3, 72 h
[7] = test system: BaF3; experiment: PROTAC activity at CRBN/KIF5B-RET (unknown origin) expressed in mouse BaF3 cells assessed as induction of RET degradation at 10 nM incubated for 24 hrs by immunoblot analysis relative to control; format: cell-based
[8] = molecular target: Proto-oncogene tyrosine-protein kinase receptor Ret (Homo sapiens, UniProt P07949); experiment: Inhibition of RET (unknown origin) preincubated for 10 mins followed by substrate/ATP addition measured after 30 mins by HTRF assay
Sequence of Proto-oncogene tyrosine-protein kinase receptor Ret (P07949 whole entry): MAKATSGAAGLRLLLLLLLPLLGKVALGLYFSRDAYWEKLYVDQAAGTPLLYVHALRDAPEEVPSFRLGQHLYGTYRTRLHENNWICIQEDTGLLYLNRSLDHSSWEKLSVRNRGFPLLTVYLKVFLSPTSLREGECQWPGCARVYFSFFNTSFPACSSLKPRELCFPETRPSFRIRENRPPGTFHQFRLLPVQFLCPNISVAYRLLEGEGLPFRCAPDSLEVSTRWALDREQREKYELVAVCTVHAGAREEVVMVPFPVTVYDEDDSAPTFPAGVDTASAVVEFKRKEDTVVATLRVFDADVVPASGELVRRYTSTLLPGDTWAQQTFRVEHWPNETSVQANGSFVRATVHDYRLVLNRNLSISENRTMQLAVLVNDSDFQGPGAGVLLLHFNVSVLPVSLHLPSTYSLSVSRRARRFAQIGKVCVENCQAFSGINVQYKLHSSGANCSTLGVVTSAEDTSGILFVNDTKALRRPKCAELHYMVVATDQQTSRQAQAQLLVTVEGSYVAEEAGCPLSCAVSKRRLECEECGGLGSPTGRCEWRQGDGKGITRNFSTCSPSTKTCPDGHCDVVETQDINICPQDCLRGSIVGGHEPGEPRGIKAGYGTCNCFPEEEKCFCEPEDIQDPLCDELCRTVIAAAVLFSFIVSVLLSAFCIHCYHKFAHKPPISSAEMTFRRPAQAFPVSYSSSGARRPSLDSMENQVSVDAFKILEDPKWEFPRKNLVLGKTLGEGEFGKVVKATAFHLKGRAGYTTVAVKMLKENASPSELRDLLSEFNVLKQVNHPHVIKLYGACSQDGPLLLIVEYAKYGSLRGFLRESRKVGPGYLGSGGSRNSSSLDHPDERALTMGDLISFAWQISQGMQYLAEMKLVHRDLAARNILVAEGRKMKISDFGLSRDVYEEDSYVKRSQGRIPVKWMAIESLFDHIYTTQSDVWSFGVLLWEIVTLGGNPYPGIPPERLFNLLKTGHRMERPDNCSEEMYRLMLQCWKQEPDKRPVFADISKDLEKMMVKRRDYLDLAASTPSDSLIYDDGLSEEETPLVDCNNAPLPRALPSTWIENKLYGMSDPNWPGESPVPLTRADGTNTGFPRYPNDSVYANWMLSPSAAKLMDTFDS

Compound	IC50 [1] [nM]	IC50 [2] [nM]	IC50 [3] [nM]	IC50 [4] [nM]	Activity [5] [%]	IC50 [6] [nM]	Activity [7] [%]	IC50 [8] [nM]
COc1ccc(CN2C3CC2CN(c2ccc(-c4cc(N5CCN(C(=O)CCCCCCCCC(=O)N[C@H](C(=O)N6C[C@H](O)C[C@H]6C(=O)N[C@@H](C)c6ccc(-c7scnc7C)cc6)C(C)(C)C)CC5)cn5ncc(C#N)c45)cn2)C3)cn1	410	> 5000	36.5	12.3	39	216		
COc1ccc(CN2C3CC2CN(c2ccc(-c4cc(N5CCN(C6CCN(c7ccc8c(c7)C(=O)N(C7CCC(=O)NC7=O)C8=O)CC6)CC5)cn5ncc(C#N)c45)cn2)C3)cn1 (centres undefined)	372	750	38.4	15.7		> 5000	36	
COc1ccc(CN2C3CC2CN(c2ccc(-c4cc(N5CCC(N6CCN(C(=O)CCCCCNc7cccc8c7C(=O)N(C7CCC(=O)NC7=O)C8=O)CC6)CC5)cn5ncc(C#N)c45)cn2)C3)cn1 (centres undefined)	50.4	376	5.2	1.8		53.6	72	0.329
COc1ccc(CN2C3CC2CN(c2ccc(-c4cc(N5CCN(CCCCCCCCC(=O)N[C@H](C(=O)N6C[C@H](O)C[C@H]6C(=O)N[C@@H](C)c6ccc(-c7scnc7C)cc6)C(C)(C)C)CC5)cn5ncc(C#N)c45)cn2)C3)cn1	522	1880	108	14.2	38	674		
COc1ccc(CN2C3CC2CN(c2ccc(-c4cc(N5CCN(CC6CN(c7ccc8c(c7)C(=O)N(C7CCC(=O)NC7=O)C8=O)C6)CC5)cn5ncc(C#N)c45)cn2)C3)cn1 (centres undefined)	145	1030	11.5	1.9		35.7	72	0.227
COc1ccc(CN2C3CC2CN(c2ccc(-c4cc(N5CCC(N6CCN(C(=O)CCCCCCCNc7ccc8c(c7)C(=O)N(C7CCC(=O)NC7=O)C8=O)CC6)CC5)cn5ncc(C#N)c45)cn2)C3)cn1 (centres undefined)	190	614	14.2	3.4		86.1	58	
COc1ccc(CN2C3CC2CN(c2ccc(-c4cc(N5CCN(CCCCC(=O)N[C@H](C(=O)N6C[C@H](O)C[C@H]6C(=O)N[C@@H](C)c6ccc(-c7scnc7C)cc6)C(C)(C)C)CC5)cn5ncc(C#N)c45)cn2)C3)cn1	852	> 5000	279	229	15	> 5000		
COc1ccc(CN2C3CC2CN(c2ccc(-c4cc(N5CCN(CCC(=O)N[C@H](C(=O)N6C[C@H](O)C[C@H]6C(=O)N[C@@H](C)c6ccc(-c7scnc7C)cc6)C(C)(C)C)CC5)cn5ncc(C#N)c45)cn2)C3)cn1	254	> 5000	126	86.8	29	723		
COc1ccc(CN2C3CC2CN(c2ccc(-c4cc(N5CCN(C(=O)CNc6ccc7c(c6)C(=O)N(C6CCC(=O)NC6=O)C7=O)CC5)cn5ncc(C#N)c45)cn2)C3)cn1 (centres undefined)	1320	1210	178	16.5		176	40	
COc1ccc(CN2C3CC2CN(c2ccc(-c4cc(N5CCN(C(=O)CCCCCNc6cccc7c6C(=O)N(C6CCC(=O)NC6=O)C7=O)CC5)cn5ncc(C#N)c45)cn2)C3)cn1 (centres undefined)	216	794	17.2	6.1		105	52	
COc1ccc(CN2C3CC2CN(c2ccc(-c4cc(N5CCC(N6CCN(C(=O)CNc7ccc8c(c7)C(=O)N(C7CCC(=O)NC7=O)C8=O)CC6)CC5)cn5ncc(C#N)c45)cn2)C3)cn1 (centres undefined)	206	572	16.6	5.3		81.9	52	
COc1ccc(CN2C3CC2CN(c2ccc(-c4cc(N5CCN(C(=O)CCCNc6cccc7c6C(=O)N(C6CCC(=O)NC6=O)C7=O)CC5)cn5ncc(C#N)c45)cn2)C3)cn1 (centres undefined)	1020	1140	142	12.2		272	44	
COc1ccc(CN2C3CC2CN(c2ccc(-c4cc(N5CCN(C(=O)CCCCCCCCCCC(=O)N[C@H](C(=O)N6C[C@H](O)C[C@H]6C(=O)N[C@@H](C)c6ccc(-c7scnc7C)cc6)C(C)(C)C)CC5)cn5ncc(C#N)c45)cn2)C3)cn1	818	1330	85.3	35.4	24	552		
COc1ccc(CN2C3CC2CN(c2ccc(-c4cc(N5CCC(N6CCN(C(=O)CCCNc7ccc8c(c7)C(=O)N(C7CCC(=O)NC7=O)C8=O)CC6)CC5)cn5ncc(C#N)c45)cn2)C3)cn1 (centres undefined)	831	812	152	14.9		127	39	
COc1ccc(CN2C3CC2CN(c2ccc(-c4cc(N5CCC(N6CCN(C(=O)CCCCCCCNc7cccc8c7C(=O)N(C7CCC(=O)NC7=O)C8=O)CC6)CC5)cn5ncc(C#N)c45)cn2)C3)cn1 (centres undefined)	212	672	17.8	5.9		93.5	50	
COc1ccc(CN2C3CC2CN(c2ccc(-c4cc(N5CCN(CCCCCCC(=O)N[C@H](C(=O)N6C[C@H](O)C[C@H]6C(=O)N[C@@H](C)c6ccc(-c7scnc7C)cc6)C(C)(C)C)CC5)cn5ncc(C#N)c45)cn2)C3)cn1	> 5000	> 5000	983	40.2	23	> 5000		
COc1ccc(CN2C3CC2CN(c2ccc(-c4cc(N5CCN(C(=O)CCCCCCCNc6ccc7c(c6)C(=O)N(C6CCC(=O)NC6=O)C7=O)CC5)cn5ncc(C#N)c45)cn2)C3)cn1 (centres undefined)	228	714	14.1	5.7		102	52	
COc1ccc(CN2C3CC2CN(c2ccc(-c4cc(N5CCN(C(=O)CNc6cccc7c6C(=O)N(C6CCC(=O)NC6=O)C7=O)CC5)cn5ncc(C#N)c45)cn2)C3)cn1 (centres undefined)	1380	1770	190	19		384	33	
COc1ccc(CN2C3CC2CN(c2ccc(-c4cc(N5CCC(N6CCN(CCCCCC#Cc7cccc8c7CN(C7CCC(=O)NC7=O)C8=O)CC6)CC5)cn5ncc(C#N)c45)cn2)C3)cn1 (centres undefined)	61.8	737	27.6	12.5		105	40	
COc1ccc(CN2C3CC2CN(c2ccc(-c4cc(N5CCN(C(=O)CCCCC(=O)N[C@H](C(=O)N6C[C@H](O)C[C@H]6C(=O)N[C@@H](C)c6ccc(-c7scnc7C)cc6)C(C)(C)C)CC5)cn5ncc(C#N)c45)cn2)C3)cn1	> 5000	> 5000	> 5000	309	10	> 5000		
COc1ccc(CN2C3CC2CN(c2ccc(-c4cc(N5CCC(N6CCN(C(=O)CNc7cccc8c7C(=O)N(C7CCC(=O)NC7=O)C8=O)CC6)CC5)cn5ncc(C#N)c45)cn2)C3)cn1 (centres undefined)	198	626	15.3	14.4		89.8	36	
COc1ccc(CN2C3CC2CN(c2ccc(-c4cc(N5CCC(N6CCN(CCCC#Cc7cccc8c7C(=O)N(C7CCC(=O)NC7=O)C8=O)CC6)CC5)cn5ncc(C#N)c45)cn2)C3)cn1 (centres undefined)	54.3	206	9.3	4.3		63.7	62	
COc1ccc(CN2C3CC2CN(c2ccc(-c4cc(N5CCN(CC6CCN(c7ccc8c(c7)C(=O)N(C7CCC(=O)NC7=O)C8=O)CC6)CC5)cn5ncc(C#N)c45)cn2)C3)cn1 (centres undefined)	192	1890	21.4	10.3		126	41	
COc1ccc(CN2C3CC2CN(c2ccc(-c4cc(N5CCN(C(=O)CCCCCNc6ccc7c(c6)C(=O)N(C6CCC(=O)NC6=O)C7=O)CC5)cn5ncc(C#N)c45)cn2)C3)cn1 (centres undefined)	232	811	17.4	6.8		125	49	
COc1ccc(CN2C3CC2CN(c2ccc(-c4cc(N5CCN(C(=O)CCCCCCC(=O)N[C@H](C(=O)N6C[C@H](O)C[C@H]6C(=O)N[C@@H](C)c6ccc(-c7scnc7C)cc6)C(C)(C)C)CC5)cn5ncc(C#N)c45)cn2)C3)cn1	> 5000	> 5000	372	177	17	> 5000		
COc1ccc(CN2C3CC2CN(c2ccc(-c4cc(N5CCC(N6CCN(CCCC#Cc7ccc8c(c7)C(=O)N(C7CCC(=O)NC7=O)C8=O)CC6)CC5)cn5ncc(C#N)c45)cn2)C3)cn1 (centres undefined)	89.2	321	12.4	5.1		84.1	60	
COc1ccc(CN2C3CC2CN(c2ccc(-c4cc(N5CCN(C(=O)CCCNc6ccc7c(c6)C(=O)N(C6CCC(=O)NC6=O)C7=O)CC5)cn5ncc(C#N)c45)cn2)C3)cn1 (centres undefined)	1410	1640	209	13.3		202	41	
